Patent US20040105778A1, “Gamma irradiation of solid nanoparticulate active agents” (Elan Pharma International Limited, priority 2002, published 2004)

Test: Gamma irradiation dosing studies, naproxen assay and degradants
Type: physicochemical

SMILES: COc1ccc2cc([C@H](C)C(=O)O)ccc2c1 [Naproxen (API), naproxen]
- Naproxen Assay Average (Control (0 kGy)): 99.07 % w/w
- Naproxen Assay Relative to Control (Control (0 kGy)): 100.00
- Naproxen Assay Average (gamma dose 5 kGy): 96.38 % w/w
- Naproxen Assay Relative to Control (gamma dose 5 kGy): 97.28
- Naproxen Assay Average (gamma dose 10 kGy): 100.82 % w/w
- Naproxen Assay Relative to Control (gamma dose 10 kGy): 101.77
- Naproxen Assay Average (gamma dose 15 kGy): 100.44 % w/w
- Naproxen Assay Average (gamma dose 25 kGy): 100.08 % w/w
- Naproxen Assay Average (gamma dose 30 kGy): 100.47 % w/w
- Naproxen Assay Average (gamma dose 40 kGy): 99.14 % w/w
- Naproxen Assay Relative to Control (gamma dose 40 kGy): 100.07
- Naproxen Assay Average (gamma dose 50 kGy): 99.49 % w/w
- Naproxen Assay Relative to Control (gamma dose 50 kGy): 100.42
